ChEMBL document CHEMBL4831557, “Parthenolide Derivatives as PKM2 Activators Showing Potential in Colorectal Cancer” (J Med Chem, 2021)
Active and inactive are the calls of the source. The calls are words filed in the database; no cut-off is given here.

How the values were obtained:
HT-29 = assay: Cytotoxicity against human HT-29 cells assessed as reduction in cell viability incubated for 48 hrs by MTT assay; type: functional, cell-based; settings: HT-29, 48 h
SW480 = assay: Cytotoxicity against human SW480 cells assessed as reduction in cell viability incubated for 48 hrs by MTT assay; type: functional, cell-based; settings: SW480, 48 h
HCT-116 = assay: Cytotoxicity against human HCT-116 cells assessed as reduction in cell viability incubated for 48 hrs by MTT assay; type: functional, cell-based; settings: HCT-116, 48 h
U2OS = assay: Cytotoxicity against human U2OS cells assessed as reduction in cell viability incubated for 48 hrs by MTT assay; type: functional, cell-based
HepG2 = assay: Cytotoxicity against human HepG2 cells assessed as reduction in cell viability incubated for 48 hrs by MTT assay; type: functional, cell-based; settings: HepG2, 48 h
MDA-MB-231 = assay: Cytotoxicity against human MDA-MB-231 cells assessed as reduction in cell viability incubated for 48 hrs by MTT assay; type: functional, cell-based; settings: MDA-MB-231, 48 h
NCM460 = assay: Cytotoxicity against human NCM460 cells assessed as reduction in cell viability incubated for 48 hrs by MTT assay; type: cell-based; settings: NCM460, 48 h
[1] = Selectivity index, ratio of IC50 for human NCM460 cells to IC50 for human HT-29 cells; type: toxicity; settings: NCM460 cells versus HT-29 cells, read-out: Ratio IC50
[2] = Selectivity index, ratio of IC50 for human NCM460 cells to IC50 for human SW480 cells
A549 = assay: cells; settings: Homo sapiens, A549, 48 h
Pyruvate kinase PKM = Pyruvate kinase PKM (Homo sapiens, UniProt P14618); assay: Activation of recombinant human PKM2 at 10 uM incubated 30 mins by fluorescence microplate reader analysis; settings: filed as activator
Sequence of Pyruvate kinase PKM (P14618 2-531 limits assumed): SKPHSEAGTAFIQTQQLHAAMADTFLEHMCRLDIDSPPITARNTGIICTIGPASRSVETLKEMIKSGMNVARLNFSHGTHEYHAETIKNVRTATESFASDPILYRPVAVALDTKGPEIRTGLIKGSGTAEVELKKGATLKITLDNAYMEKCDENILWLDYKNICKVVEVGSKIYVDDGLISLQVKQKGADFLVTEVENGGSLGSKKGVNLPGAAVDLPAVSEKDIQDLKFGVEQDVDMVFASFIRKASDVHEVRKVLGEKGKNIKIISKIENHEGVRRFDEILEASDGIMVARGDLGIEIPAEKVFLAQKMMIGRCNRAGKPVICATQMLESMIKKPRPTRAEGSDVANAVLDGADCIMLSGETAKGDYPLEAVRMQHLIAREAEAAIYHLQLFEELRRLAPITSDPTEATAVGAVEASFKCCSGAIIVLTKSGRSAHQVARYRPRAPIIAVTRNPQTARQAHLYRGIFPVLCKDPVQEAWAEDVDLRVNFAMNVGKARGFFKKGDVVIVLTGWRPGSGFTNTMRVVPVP

SMILES | IC50 (A549) [µM] | Activity (Pyruvate kinase PKM) | IC50 (HT-29) [µM] | IC50 (SW480) [nM] | IC50 (HCT-116) [µM] | IC50 (U2OS) [µM] | IC50 (HepG2) [µM] | IC50 (MDA-MB-231) [µM] | IC50 (NCM460) [nM] | selectivity ratio [1] | Ratio IC50 [2]
C=C1C(=O)O[C@@H]2C3O[C@]3(C)CC/C=C(\C)CC[C@@H]12 (some centres not stated) | 10.3 | – | 7.41 | 3560 | 8.12 | 7 | 26.1 | 8.68 | 2780 | 0.38 | 0.78
C=C1C(=O)O[C@H]2[C@H]1CC/C(COC(=O)c1ccc3ncc(Br)cc3c1)=C/CC[C@@]1(C)O[C@@H]21 | 0.92 | – | 0.79 | 380 | 1.21 | 2.51 | 4.5 | 1.89 | – | – | –
C=C1C(=O)O[C@H]2[C@H]1CC/C(COC(=O)CCc1n[nH]c(=O)c3ccccc13)=C/CC[C@@]1(C)O[C@@H]21 | 13.5 | – | 4.11 | 1450 | 4.51 | 6.03 | 7.22 | 7.92 | – | – | –
C=C1C(=O)O[C@H]2[C@H]1CC/C(CO)=C\CC[C@@]1(C)O[C@@H]21 | 7.49 | – | 6.95 | 5870 | 7.5 | 10.7 | 12 | 6.01 | – | – | –
C=C1C(=O)O[C@H]2[C@H]1CC/C(COC(=O)CCc1nc3ccccc3[nH]c1=O)=C/CC[C@@]1(C)O[C@@H]21 | 8.12 | – | 5.66 | 1740 | 6.13 | 6.99 | 14.2 | 7.56 | – | – | –
Cn1c2cc([S+](C)[O-])sc2c2cnn(Cc3cccc(N)c3)c(=O)c21 (configuration not stated) | > 100 | – | > 100 | 93000 | 89.9 | > 100 | > 100 | > 100 | – | – | –
C=C1C(=O)O[C@H]2[C@H]1CC/C(COC(=O)c1cccc3cccnc13)=C/CC[C@@]1(C)O[C@@H]21 | 2.65 | – | 2.65 | 490 | 4.12 | 3.54 | 8.76 | 2.2 | – | – | –
C/C1=C\CC[C@@]2(C)O[C@H]2[C@H]2OC(=O)/C(=C\c3ccc4ncncc4c3)[C@@H]2CC1 | 40.2 | – | > 100 | 51600 | 87.7 | 72 | > 100 | > 100 | – | – | –
C/C1=C\CC[C@@]2(C)O[C@H]2[C@H]2OC(=O)/C(=C\c3ccc4nccnc4c3)[C@@H]2CC1 | 9.18 | – | 358 | 3510 | 4.38 | 3 | 13.8 | 7.59 | – | – | –
CO[C@@]12[C@H](COC(N)=O)C3=C(C(=O)C(C)=C(N)C3=O)N1C[C@@H]1N[C@@H]12 [MITOMYCIN] | 2.75 | – | 0.44 | 790 | 0.55 | 8.45 | 2.27 | 2.89 | – | – | –
C=C1C(=O)O[C@H]2[C@H]1CC/C(COC(=O)c1ccc3ncncc3c1)=C/CC[C@@]1(C)O[C@@H]21 | 17.4 | – | 5.82 | 1900 | 6.19 | 13.9 | 11.8 | 9.01 | – | – | –
C=C1C(=O)O[C@H]2[C@H]1CC/C(COC(=O)c1cnnc3ccccc13)=C/CC[C@@]1(C)O[C@@H]21 | 2.29 | – | 4.27 | 1330 | 3.78 | 4.01 | 12.5 | 3.68 | – | – | –
C=C1C(=O)O[C@H]2[C@H]1CC/C(COC(=O)c1ccc3cnccc3c1)=C/CC[C@@]1(C)O[C@@H]21 | 2.45 | – | 2.43 | 1330 | 2.7 | 2.58 | 9.52 | 2.27 | – | – | –
C=C1C(=O)O[C@H]2[C@H]1CC[C@]1(C)O[C@@H]1CC[C@@]1(C)O[C@@H]21 | 28.6 | – | 11.4 | 4300 | 13.4 | 13 | 23.5 | 15.2 | – | – | –
C=C1C(=O)O[C@H]2[C@H]1CC/C(COC(=O)c1ccc3ncccc3c1)=C/CC[C@@]1(C)O[C@@H]21 | 3.18 | Active | 1.33 | 290 | 1.6 | 3.11 | 6.6 | 1.99 | – | – | –

Second part, led by results:

IC50 (A549) [µM] | Activity (Pyruvate kinase PKM) | SMILES | IC50 (HT-29) [µM] | IC50 (SW480) [nM] | IC50 (HCT-116) [µM] | IC50 (U2OS) [µM] | IC50 (HepG2) [µM] | IC50 (MDA-MB-231) [µM] | IC50 (NCM460) [nM] | selectivity ratio [1] | Ratio IC50 [2]
1.34 | – | C=C1C(=O)O[C@H]2[C@H]1CC/C(COC(=O)c1ccc3nc(C)ccc3c1)=C/CC[C@@]1(C)O[C@@H]21 | 1.61 | 790 | 2.78 | 1.68 | 7.79 | 1.29 | – | – | –
3.49 | – | C=C1C(=O)O[C@H]2[C@H]1CC/C(COC(=O)c1ccc3ccccc3c1)=C/CC[C@@]1(C)O[C@@H]21 | 2.8 | 2250 | 3.05 | 3.58 | 8.15 | 3.34 | – | – | –
14.2 | – | C=C1C(=O)O[C@H]2[C@H]1CC/C(C(=O)CN1CCN(C(=O)c3ccc4ccccc4n3)CC1C)=C/CC[C@@]1(C)O[C@@H]21 (some centres not stated) | 6.34 | 8640 | 6.89 | 21.7 | 14 | 8.67 | – | – | –
9.68 | – | C=C1C(=O)O[C@H]2[C@H]1CC/C(C(=O)CN1CCCN(C(=O)c3ccc4ccccc4n3)CC1)=C/CC[C@@]1(C)O[C@@H]21 | 4.31 | 3130 | 4.32 | 10.6 | 5 | 7.44 | – | – | –
60.1 | – | C/C1=C\CC[C@@]2(C)O[C@H]2[C@H]2OC(=O)C(CN3CCN(C(=O)c4ccc5ccccc5n4)CC3)[C@@H]2CC1 (some centres not stated) | 54.4 | 23100 | 64.3 | 23.5 | 69.5 | 87 | – | – | –
2.95 | – | C=C1C(=O)O[C@H]2[C@H]1CC/C(COC(=O)c1ccc3cccnc3c1)=C/CC[C@@]1(C)O[C@@H]21 | 2.8 | 330 | 3.13 | 1.3 | 9.84 | 1.75 | – | – | –
2.45 | – | C=C1C(=O)O[C@H]2[C@H]1CC/C(COC(=O)c1cnc3ccccc3c1)=C/CC[C@@]1(C)O[C@@H]21 | 2.43 | 330 | 2.7 | 2.58 | 9.53 | 2.27 | – | – | –
27.3 | – | C/C1=C\CC[C@@]2(C)O[C@H]2[C@H]2OC(=O)C(CN3CCCN(C(=O)c4ccc5ccccc5n4)CC3)[C@@H]2CC1 (some centres not stated) | 39 | 6390 | 50 | 11.1 | 59.6 | 71.7 | – | – | –
5.12 | – | C=C1C(=O)O[C@H]2[C@H]1CC/C(COC(=O)c1ccc3nc(O)ccc3c1)=C/CC[C@@]1(C)O[C@@H]21 | 1.72 | 730 | 2.25 | 7.62 | 10.6 | 5.1 | – | – | –
